# Data reported in article PMC12525867, “Aromaticity Tuning in Biaryl Monophosphines and Their Derivatives” (Molecules, 2025).
# Like-named read-outs stand apart in the source and are kept apart here.
# Experiments:
# S. aureus ATCC 29213 = assay: Antibacterial screening, broth microdilution (MIC/MBC); type: cell-based, Staphylococcus aureus; conditions: for MIC: S. aureus ATCC 29213, MHB, 24 h, 35 °C; for MBC: S. aureus ATCC 29213
# Description: (§1) The antimicrobial activities of a series of compounds 1–5 were tested through the utilization of seven reference species, encompassing both Gram-positive (Staphylococcus aureus ATCC 29213, Staphylococcus epidermidis ATCC 12228, Micrococcus luteus ATCC 10240) and Gram-negative (Escherichia coli ATCC 25922, Klebsiella pneumoniae ATCC 13883, Proteus mirabilis ATCC 12453, Acinetobacter baumannii ATCC 19606) bacteria as model microorganisms. For this purpose, microbial suspensions were prepared in sterile saline (0.85% NaCl) with an optical density of 0.5 McFarland standard, yielding a concentration of 150 × 10^6 CFU/mL (CFU, colony-forming units). All of the stock solutions of the tested compounds were dissolved in DMSO. Amoxicillin (Glentham Life Sciences Ltd., Corsham, UK) was used as a positive control.
# (§2) The MIC values of the tested compounds were determined by serial twofold dilutions of 1–5 in Mueller Hinton Broth (MHB, Biomaxima, Lublin, Poland). The range of final 1–5 concentrations used was from 0.49 up to 1000 μg/mL, and for amoxicillin from 0.12 up to 250 μg/mL in the 96-well microtiter plates (Medlab, Raszyn, Poland), starting with 98 μL MHB and 2 μL bacterial inoculum added to each well. Positive controls consisted of 100 μL MHB in each well with the tested compounds at the same concentration range. The negative controls consisted of 100 μL of MHB only. Each set of tests and controls was established with three replicates. The microtiter plates were then subjected to an incubation period of 24 h at a temperature of 35 ± 2 °C. After incubation, the optical density of the microbial growth was measured at a wavelength of 600 nm using a microplate reader, the Biotek Elx800 (BioTek Instruments, Inc., Winooski, VT, USA). The MIC value was defined as the lowest concentration of the tested compound at which there was no visible growth of the tested microorganisms. The determination of the MIC values was achieved by employing the broth microdilution method, in accordance with the recommendations of the European Committee on Antimicrobial Susceptibility Testing (EUCAST). […] Then, the MHA plates were incubated overnight at 35 ± 2 °C. […] The MIC and MBC values were reported in μg/mL, according to the EUCAST reference.
# [1] = system: S. epidermidis ATCC 12228; assay: as above; type: cell-based, Staphylococcus epidermidis; conditions: for MIC: S. epidermidis ATCC 12228, MHB, 24 h, 35 °C
# Description: as §1, §2
# M. luteus ATCC 10240 = assay: as above; type: cell-based, Micrococcus luteus; conditions: for MIC: ATCC10240, 24 h, M. luteus ATCC 10240, MHB, 24 h, 35 °C; for MBC: M. luteus ATCC 10240
# Description: as §1, §2
# E. coli ATCC 25922 = assay: as above; type: cell-based, Escherichia coli; conditions: for MIC: E. coli ATCC 25922, MHB, 24 h, 35 °C
# Description: as §1, §2
# K. pneumoniae ATCC 13883 = assay: as above; type: cell-based, Klebsiella pneumoniae; conditions: for MIC: K. pneumoniae ATCC 13883, MHB, 24 h, 35 °C
# Description: as §1, §2
# P. mirabilis ATCC 12453 = assay: as above; type: cell-based, Proteus mirabilis; conditions: for MIC: P. mirabilis ATCC 12453, MHB, 24 h, 35 °C
# Description: as §1, §2
# A. baumannii ATCC 19606 = assay: as above; type: cell-based, Acinetobacter baumannii; conditions: for MIC: A. baumannii ATCC 19606, MHB, 24 h, 35 °C
# Description: as §1, §2
# [2] = Cytotoxicity, microculture tetrazolium (MTT) test, VERO; type: cell-based; conditions: African green monkey, ATCC CCL-81; VERO (normal kidney cells), 24 h incubation, MTT; ± SD
# Description: (§3) The cytotoxicity of biaryl monophosphines was tested in vitro in normal (VERO) and cancer-derived (H1HeLa) cells after 24 h of incubation using a microculture tetrazolium test. Table 2 presents the CC50 (concentrations decreasing the cellular viability by 50%) values calculated from dose–response cytotoxicity curves (Figure 4).
# (§4) Cytotoxicity was evaluated using a microculture tetrazolium test as previously described, and details can be found in the Supplementary Materials. The cell lines used in the presented study were acquired from the American Type Culture Collection (ATCC); the one used for cytotoxicity testing included non-cancerous VERO (kidney; ATCC CCL-81) cells and cancer-originating H1HeLa (cervical adenocarcinoma; ATCC CRL-1958) cells. VERO cells were cultured in Dulbecco’s Modified Eagle’s Medium (DMEM; Corning, Tewksbury, MA, USA), while Eagle’s Minimum Essential Medium (MEM; Corning) was used for H1HeLa. Antibiotics (penicillin–streptomycin solution, Corning) and fetal bovine serum (FBS, Corning) were added to cell media. Cells were incubated in a 5% CO2 atmosphere at 37 °C (CO2 incubator, Panasonic Healthcare Co., Tokyo, Japan). Briefly, the monolayers of VERO or H1HeLa cells in 96-well plates (Falcon, Corning) were treated with serial dilutions of selected compounds for 24 h. After this, the medium was removed, the plates were washed with phosphate buffered saline (PBS; Corning), a 10% solution of (3-(4,5-dimethylthiazol-2-yl)-2,5-diphenyltetrazolium bromide (MTT; Sigma-Aldrich, St. Louis, MO, USA) (5 mg/mL) in FBS-free cell media was added, and the incubation continued for the next 4 h. Subsequently, the precipitated formazan crystals were dissolved, and after overnight incubation at 37 °C, the Synergy H1 Multi-Mode Microplate Reader (BioTek Instruments, Inc., Winooski, VT, USA) with Gen5 software (ver. 3.09.07; BioTek Instruments, Inc.) was used for absorbance acquisition (540 and 620 nm). Data was exported to GraphPad Prism (ver. 10) to calculate the CC50 values (50% cytotoxic concentration) from dose–response curves.
# (§5) Aromaticity Tuning in Biaryl Monophosphines and Their Derivatives […]
# (§6) Cell line maintenance and in vitro experiments
# (§7) The cytotoxicity of selected biaryl monophosphines was evaluated in vitro towards normal VERO (ATCC, CCL-81) cells and cancer-derived cell line H1HeLa (cervical adenocarcinoma; ATCC (American Type Culture Collection) CRL-1958) using 3-(4,5-dimethylthiazol-2-yl)-2,5-diphenylte-trazolium bromide (MTT) based protocol.
# (§8) Media used for in vitro culturing included Dulbecco's Modified Eagle's Medium (DMEM, Corning, Tewksbury, MA, USA) used for VERO cells and Modified Eagle Medium (MEM, Corning) used for H1HeLa. Cell media used in the experiments were supplemented with antibiotics (Penicil-lin-Streptomycin Solution, Corning) and fetal bovine serum (FBS, Corning) – 10% (cell passaging) and 2% (cell maintenance and experiments). Phosphate-buffered saline (PBS) and trypsin were bought from Corning, whereas MTT (3-(4,5-dimethylthiazol-2-yl)-2,5-diphenyltetrazolium bromide) from Sigma (Sigma-Aldrich, St. Louis, MO, USA). SDS was purchased from PanReac Applichem (Darmstadt, Germany). Incubation was carried out in a 5% CO2 atmosphere at 37°C (CO2 incubator, Panasonic Healthcare Co., Tokyo, Japan).
# (§9) Concentrations of cells for passaging were as follows: VERO – 1.5*10^5 cells/mL, H1HeLa – 2*10^5 cells/mL. Routine observations of cell cultures and experiments were carried out using an in-verted microscope (CKX41, Olympus Corporation, Tokyo, Japan) equipped with a ca mera (Moti-cam 3+, Motic, Hong Kong), and the results were recorded (Motic Images Plus 2.0, Motic).
# (§10) Stock solutions of biaryl monophosphines were prepared by dissolving the samples in cell culture grade DMSO (PanReac Applichem).
# (§11) Evaluation of cytotoxicity
# (§12) Cytotoxicity was tested using an MTT-based protocol. The cells were passaged into 96-well plates (Falcon, TC-treated, Corning) and, after overnight incubation, treated with serial dilutions of […]
# [3] = Cytotoxicity, microculture tetrazolium (MTT) test, H1HeLa; type: cell-based; conditions: human, H1HeLa cells (cervical adenocarcinoma, ATCC CRL-1958); H1HeLa (cervical adenocarcinoma), 24 h incubation, MTT; ± SD
# Description: as §3, §4, §5, §6, §7, §8, §9, §10, §11, §12
# VERO cells = assay: Cytotoxicity, microculture tetrazolium (MTT) test, VERO; type: cell-based
# Description: as §3, §4, §5, §6, §7, §8, §9, §10, §11, §12
# H1HeLa cells = assay: Cytotoxicity, microculture tetrazolium (MTT) test, H1HeLa; type: cell-based
# Description: as §3, §4, §5, §6, §7, §8, §9, §10, §11, §12
# [4] = Staphylococcus aureus, ATCC29213, read-out: MIC
# [5] = Staphylococcus aureus, ATCC29213, read-out: MBC
# [6] = Staphylococcus epidermidis, ATCC12228, read-out: MIC
# [7] = Staphylococcus epidermidis, ATCC12228, S. epidermidis ATCC 12228, read-out: MBC
# [8] = Micrococcus luteus, ATCC10240, read-out: MBC
# [9] = Escherichia coli, ATCC25922, read-out: MIC
# [10] = Klebsiella pneumoniae, ATCC13883, read-out: MIC
# [11] = Proteus mirabilis, ATCC12453, read-out: MIC
# [12] = Acinetobacter baumannii, ATCC19606, read-out: MIC
Compound,MIC (S. aureus ATCC 29213; [4]) [µg/mL],MBC (S. aureus ATCC 29213; [5]) [µg/mL],"MIC [1, 6] [µg/mL]","MBC [1, 7] [µg/mL]",MIC (M. luteus ATCC 10240; Micrococcus luteus) [µg/mL],MBC (M. luteus ATCC 10240; [8]) [µg/mL],MIC (E. coli ATCC 25922; [9]) [µg/mL],MIC (K. pneumoniae ATCC 13883; [10]) [µg/mL],MIC (P. mirabilis ATCC 12453; [11]) [µg/mL],MIC (A. baumannii ATCC 19606; [12]) [µg/mL],also measured
"CC1(C)S[C@@H]2[C@H](NC(=O)[C@H](N)c3ccc(O)cc3)C(=O)N2[C@H]1C(=O)O [Amox, Amoxicillin, reference compound]",0.98,0.98,31.2,31.2,31.2,31.2,3.91,250,0.49,125,"MBC (E. coli ATCC 25922; Escherichia coli, ATCC25922, E. coli ATCC 25922): 7.81 µg/mL; MBC (K. pneumoniae ATCC 13883; Klebsiella pneumoniae, ATCC13883, K. pneumoniae ATCC 13883): 250 µg/mL; MBC (P. mirabilis ATCC 12453; Proteus mirabilis, ATCC12453, P. mirabilis ATCC 12453): 0.49 µg/mL; MBC (A. baumannii ATCC 19606; Acinetobacter baumannii, ATCC19606, A. baumannii ATCC 19606): 125 µg/mL"
"COc1ccccc1-c1c(P(=O)(C2CCCCC2)C2CCCCC2)c(O)c2ccccc2c1O [Compound 4, 2-(Dicyclohexylphosphoryl)-3-(2-methoxyphenyl)naphthalene-1,4-diol]",250,> 1000,500,> 1000,15.6 to 31.2,> 1000,500 to 1000,500,1000,1000,CC50 at 24 h [2]: 4.7 ± 0.41 µg/mL; CC50 at 24 h [3]: 5.53 ± 0.12 µg/mL
"Dicyclohexyl[1,4-dimethoxy-3-(2,4,6-trimethoxyphenyl)naphthalen-2-yl]phosphane [Compound 5]",,,,,,,,,,,CC50 (VERO cells): 89.88 ± 4.11 µg/mL; CC50 (H1HeLa cells): 200.85 ± 13.08 µg/mL; MBC (S. aureus ATCC 29213): >1000 µg/mL; MIC (S. aureus ATCC 29213): 125 to 250 µg/mL; MBC ([1]; S. epidermidis ATCC 12228): 1000 µg/mL; type of activity (bactericidal or bacteriostatic) ([1]; S. epidermidis ATCC 12228): bactericidal; MIC [1]: 31.25 to 62.5 µg/mL; MBC (M. luteus ATCC 10240): 125 µg/mL; MIC (E. coli ATCC 25922): >1000 µg/mL; MIC (K. pneumoniae ATCC 13883): >1000 µg/mL; MIC (P. mirabilis ATCC 12453): >1000 µg/mL; MIC (A. baumannii ATCC 19606): 1000 µg/mL
